Data published in patent US9063143B2, “Cancer platinum resistance detection and sensitization method” (University of South Florida, priority 2008, dated 2015).

Experiments:
Assay in all cases: MTT cell proliferation assay, cisplatin resistance
Type in all cases: cell-based
Settings in all cases: MTT proliferation rate at 2 μg/mL
[1] = tested on: A2008 ovarian cancer cell line
Description: (§1) Ovarian cancer cell lines (C13, OV2008, A2780S, A2780CP, IGROV1, T8, A2008, IOSER, and OVCAR5) were grown in RPMI-1640 supplemented with 10% fetal bovine serum, 1% sodium pyruvate, and 1% nonessential amino acids. IOSER cells were grown in 1:1 MCBD105 and Medium 199, HEPES, Bovine Pituitary Extract, Insulin, hEGF, hydrocortisone and 15% FBS. All tissue culture reagents were obtained from Sigma Aldrich (St Louis, Mo.). Cells were maintained in a CO2 incubator at 37° C. and subcultured at 70% confluence. The cell lines consist of two from the NCI60 panel: IGR-OV1 (doubling time 31) and OVCAR-5 (doubling time 48.8). Several cell lines have mother/daughter relationships including A2008 and daughter C13; as well as A2780S/A2780CP.
(§2) To induce the development of platinum-resistance, the nine ovarian cancer cell lines were subjected to serial treatments with increasing dose cisplatin (Group A: 1 and 3 μg/mL, Group B: 2 and 4 μg/mL, and Group C: 3 and 5 μg/mL) using a protocol previously described by Hong et al (Antisense Bcl2 oligonucleotide in cisplatin-resistant bladder cancer cell lines. BJU Int. 2002 July; 90(1):113-7). For each of the 9 cell lines, three different dosage schedules were used: Schedule A—3 treatment/recovery cycles at 1 μg/mL, followed by 3 treatment/recovery cycles at 3 μg/mL; Schedule B—3 treatment/recovery cycles at 2 μg/mL, followed by 3 treatment/recovery cycles at 4 μg/mL; Schedule C—3 treatment/recovery cycles at 3 μg/mL, followed by 3 treatment/recovery cycles at 5 μg/mL. After each treatment, cells were allowed to recover before re-treatment. Gene expression analysis was performed prior to treatment, after 3 and 6 treatments. The experiment design and notations used for each treatment schedule are outlined in Table 1.
(§3) Thus, for each of the 9 cell lines, 3 different starting doses of cisplatin were used with three different recovery cycles, such that a total of 162 treatment/recovery cycles were induced. Increasing platinum-resistance was confirmed by MTT cell proliferation assays prior to cisplatin treatment, and after 3 and 6 treatment/recovery cycles (for each treatment schedule).
(§4) MTT solution was produced by dissolving 3-(4,5-Dimethylthiazol-2-yl)-2,5-diphenyltetrazolium bromide (MTT; Sigma, St. Louis, Mo., USA) in phosphate-buffered saline (PBS; 5 mg/mL). Cells (1×10^3) were incubated with 100 μL of culture medium for 48 h in 96-well plates, and 100 μL of MTT solution with RPMI media in a 1:10 concentration was added to each well. After 4 h of incubation, medium was decanted. 100 μL of acidified isopropanol was added to each well. […] MTT assays were performed independently in triplicate per each experimental time point and means reported. For each cell line at each time-point for each schedule, an IC50 was calculated using MTT assay, as well as a percent cell survival at a fixed cisplatin concentration (based upon the mid-point of the log-phase of the dose-response curve for each cell line at baseline), seen in Table 2.
(§5) Prior to treatment (baseline), and at each dose level following treatment (3 and 6 treatment/recovery cycles) and cell recovery, RNA was extracted and genome-wide expression analysis performed using U133 plus 2.0 Affymetrix chips and cisplatin-resistance was quantified using MTT assay. In parallel, at each of these time-points, RNA was extracted and genome-wide expression analysis performed using U133 plus 2.0 Affymetrix chips. Array analysis was performed on 72 samples. Following recovery from each dose level, cells were evaluated for platinum-resistance using MTT proliferation assay, seen in Table 3. Cell line recovery was defined as the time taken for the cells to repopulate in a normal fashion (to reach 70% confluence in 48 hours). Cell line proliferation rate at 2 μg/mL was used as a measure of resistance.

[2] = tested on: A2780CP ovarian cancer cell line
Description: as §1, §2, §3, §4, §5

[3] = tested on: A2780S ovarian cancer cell line
Description: as §1, §2, §3, §4, §5

[4] = tested on: C13 ovarian cancer cell line
Description: as §1, §2, §3, §4, §5

[5] = tested on: IGROV1 ovarian cancer cell line
Description: as §1, §2, §3, §4, §5

IOSER cells = tested on: IOSER cells
Description: as §1, §2, §3, §4, §5

[6] = tested on: OV2008 ovarian cancer cell line
Description: as §1, §2, §3, §4, §5

[7] = tested on: OVCAR5 ovarian cancer cell line
Description: as §1, §2, §3, §4, §5

[8] = tested on: T8 ovarian cancer cell line
Description: as §1, §2, §3, §4, §5

SMILES: N.N.[Cl][Pt][Cl] [cisplatin]
- Cell population measurements ([1]; A2008 after cisplatin regimen 1.33): 19
- Cell population measurements ([1]; A2008 after cisplatin regimen 2.33): 33
- Cell population measurements ([1]; A2008 after cisplatin regimen 3.33): 25
- Cell population measurements ([1]; A2008 after cisplatin regimen 3.36): 25.6
- Cell population measurements ([1]; A2008 after cisplatin regimen 4.36): 29
- Cell population measurements ([1]; A2008 after cisplatin regimen 5.36): 37
- Cell population measurements ([2]; A2780CP after cisplatin regimen 1.33): 84
- Cell population measurements ([2]; A2780CP after cisplatin regimen 2.33): 100
- Cell population measurements ([2]; A2780CP after cisplatin regimen 3.33): 91
- Cell population measurements ([2]; A2780CP after cisplatin regimen 3.36): 100
- Cell population measurements ([2]; A2780CP after cisplatin regimen 4.36): 83
- Cell population measurements ([2]; A2780CP after cisplatin regimen 5.36): 98
- Cell population measurements ([3]; A2780S after cisplatin regimen 1.33): 26
- Cell population measurements ([3]; A2780S after cisplatin regimen 2.33): 39
- Cell population measurements ([3]; A2780S after cisplatin regimen 3.33): 64
- Cell population measurements ([3]; A2780S after cisplatin regimen 3.36): 30.5
- Cell population measurements ([3]; A2780S after cisplatin regimen 4.36): 87
- Cell population measurements ([3]; A2780S after cisplatin regimen 5.36): 72
- Cell population measurements ([4]; C13 after cisplatin regimen 1.33): 83
- Cell population measurements ([4]; C13 after cisplatin regimen 2.33): 73
- Cell population measurements ([4]; C13 after cisplatin regimen 3.33): 71
- Cell population measurements ([4]; C13 after cisplatin regimen 3.36): 53
- Cell population measurements ([4]; C13 after cisplatin regimen 4.36): 91
- Cell population measurements ([4]; C13 after cisplatin regimen 5.36): 67
- Cell population measurements ([5]; IGROV1 after cisplatin regimen 1.33): 69
- Cell population measurements ([5]; IGROV1 after cisplatin regimen 2.33): 48
- Cell population measurements ([5]; IGROV1 after cisplatin regimen 3.33): 55
- Cell population measurements ([5]; IGROV1 after cisplatin regimen 3.36): 68.3
- Cell population measurements ([5]; IGROV1 after cisplatin regimen 4.36): 69
- Cell population measurements ([5]; IGROV1 after cisplatin regimen 5.36): 58
- Cell population measurements (IOSER cells; IOSER after cisplatin regimen 1.33): 62
- Cell population measurements (IOSER cells; IOSER after cisplatin regimen 2.33): 70
- Cell population measurements (IOSER cells; IOSER after cisplatin regimen 3.33): 79
- Cell population measurements (IOSER cells; IOSER after cisplatin regimen 3.36): 89
- Cell population measurements (IOSER cells; IOSER after cisplatin regimen 4.36): 71
- Cell population measurements (IOSER cells; IOSER after cisplatin regimen 5.36): 84
- Cell population measurements ([6]; OV2008 after cisplatin regimen 1.33): 62
- Cell population measurements ([6]; OV2008 after cisplatin regimen 2.33): 54
- Cell population measurements ([6]; OV2008 after cisplatin regimen 3.33): 67
- Cell population measurements ([6]; OV2008 after cisplatin regimen 3.36): 64.8
- Cell population measurements ([6]; OV2008 after cisplatin regimen 4.36): 98
- Cell population measurements ([6]; OV2008 after cisplatin regimen 5.36): 86
- Cell population measurements ([7]; OVCAR5 after cisplatin regimen 1.33): 49
- Cell population measurements ([7]; OVCAR5 after cisplatin regimen 2.33): 41
- Cell population measurements ([7]; OVCAR5 after cisplatin regimen 3.33): 47
- Cell population measurements ([7]; OVCAR5 after cisplatin regimen 3.36): 66.5
- Cell population measurements ([7]; OVCAR5 after cisplatin regimen 4.36): 69
- Cell population measurements ([7]; OVCAR5 after cisplatin regimen 5.36): 63
- Cell population measurements ([8]; T8 after cisplatin regimen 1.33): 42
- Cell population measurements ([8]; T8 after cisplatin regimen 2.33): 64
- Cell population measurements ([8]; T8 after cisplatin regimen 3.33): 67
- Cell population measurements ([8]; T8 after cisplatin regimen 3.36): 68.4
- Cell population measurements ([8]; T8 after cisplatin regimen 4.36): 69
- Cell population measurements ([8]; T8 after cisplatin regimen 5.36): 62
